What all share (experiment): microbe, parasite or virus in culture
Holding throughout (type): cell-based, HIV-1

The subject of assay [1] is NLRepRlucP373S recombinant wild type (WT) virus. In outline: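 MT-2 cells infected with NLRepRlucP373S Renilla luciferase reporter virus (NL4-3, Gag P373S), inocula normalized by luciferase signal; compounds 3-fold serially diluted, 1% DMSO final. Virus yield read by Renilla luciferase after 4-5 days at 37 °C. EC50/EC90 from median effect equation; background = signal at NFV 3 μM.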

Assay [2] has as its system A364V site directed mutant virus. The following applies: for EC50: Human immunodeficiency virus 1, MT2, read-out: A364V EC50. In outline: (§1)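 Multiple-cycle assay in MT-2 cells infected with Renilla luciferase NL4-3 (Gag P373S background) carrying site-directed Gag A364V or V370A/ΔT371 changes, inocula normalized by luciferase signal. 10,000 cells/well, 3-fold compound dilutions, 1% DMSO, 4–5 days at 37°C; yield read as Renilla luciferase.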

Assay [3] relates to gag V370A/ΔT371 virus. The following applies: for EC50: Human immunodeficiency virus 1, MT2, read-out: V370A/ΔT371 EC50. A digest of the protocol:
as §1

Assay [4] concerns T332S/V362I/Pr R41G virus. As to conditions: for EC50: Human immunodeficiency virus 1, MT2, read-out: T332S/V362I/pr41G EC50. In outline:
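Renilla luciferase NL4-3 reporter virus (Gag P373S background) carrying Gag T332S/V362I plus protease R41G, inoculum normalized by luciferase signal, infected MT-2 cells (10,000/well). Compounds 3-fold diluted, 1% DMSO final. After 4–5 days at 37 °C, virus yield measured as Renilla luciferase activity in a multiple-cycle assay.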

The mark [5] stands for this setting: Human immunodeficiency virus 1, MT2, read-out: WT EC50.

Where two headings read alike, the source gives them in different places. Some results are limits rather than exact numbers.

The results in this text go back to patent publication US10421774B2 (priority 2016, dated 2019).

Turning to `C=C(C)[C@@H]1CC[C@]2(NCCN3CCS(=O)(=O)CC3)CC[C@]3(C)[C@H](CC[C@@H]4[C@@]5(C)CC=C(C6=CCC(COc7cccc(C#N)n7)(C(=O)O)CC6)C(C)(C)[C@@H]5CC[C@]43C)[C@@H]12` (stereo partly drawn) [Example 39, 1-(((6-cyanopyridin-2-yl)oxy)methyl)-4-((1R,3aS,5aR,5bR,7aR,11aS,11bR,13aR,13bR)-3a-((2-(1,1-dioxidothiomorpholino)ethyl)amino)-5a,5b,8,8,11a-pentamethyl-1-(prop-1-en-2-yl)-2,3,3a,4,5,5a,5b,6,7,7a,8,11,11a,11b,12,13,13a,13b-octadecahydro-1H-cyclopenta[a]chrysen-9-yl)cyclohex-3-ene-1-carboxylic acid], the EC50 in assay [1] (setting [5]) is 0.014 µM; in assay [2], < 0.05 µM; in assay [3] it was > 0.05 µM; in assay [4], > 0.05 µM.

`C=C(C)[C@@H]1CC[C@]2(NCC[C@]3(O)CC[C@H](S(C)(=O)=O)CC3)CC[C@]3(C)[C@H](CC[C@@H]4[C@@]5(C)CC=C(C6=CC[C@@](COc7ncccc7C#N)(C(=O)O)CC6)C(C)(C)[C@@H]5CC[C@]43C)[C@@H]12` [Example A4, (S)-1-(((3-cyanopyridin-2-yl)oxy)methyl)-4-((1R,3aS,5aR,5bR,7aR,11aS,11bR,13aR,13bR)-3a-((2-((1r,4S)-1-hydroxy-4-(methylsulfonyl)cyclohexyl)ethyl)amino)-5a,5b,8,8,11a-pentamethyl-1-(prop-1-en-2-yl)-2,3,3a,4,5,5a,5b,6,7,7a,8,11,11a,11b,12,13,13a,13b-octadecahydro-1H-cyclopenta[a]chrysen-9-yl)cyclohex-3-enecarboxylic acid]: the EC50 is 0.004 µM in assay [1] (setting [5]), 0.026 µM in assay [2], 0.006 µM in assay [3] and 0.006 µM in assay [4].

With `C=C(C)[C@@H]1CC[C@]2(NCC[C@]3(O)CC[C@@H](S(C)(=O)=O)CC3)CC[C@]3(C)[C@H](CC[C@@H]4[C@@]5(C)CC=C(C6=CC[C@@](COc7ncccc7C#N)(C(=O)O)CC6)C(C)(C)[C@@H]5CC[C@]43C)[C@@H]12` [Example A3, (S)-1-(((3-cyanopyridin-2-yl)oxy)methyl)-4-((1R,3aS,5aR,5bR,7aR,11aS,11bR,13aR,13bR)-3a-((2-((1s,4R)-1-hydroxy-4-(methylsulfonyl)cyclohexyl)ethyl)amino)-5a,5b,8,8,11a-pentamethyl-1-(prop-1-en-2-yl)-2,3,3a,4,5,5a,5b,6,7,7a,8,11,11a,11b,12,13,13a,13b-octadecahydro-1H-cyclopenta[a]chrysen-9-yl)cyclohex-3-enecarboxylic acid], the EC50 in assay [1] (setting [5]) was determined as 0.004 µM; in assay [1] (Human immunodeficiency virus 1, read-out: WT EC50), 0.004 µM; in assay [2] it was 0.011 µM; in assay [3], 0.005 µM; in assay [4], 0.005 µM. The EC90 is 0.166 µM in assay [2] (Human immunodeficiency virus 1, read-out: A364V EC90); 0.015 µM in assay [3] (Human immunodeficiency virus 1, read-out: V370A/ΔT371 EC90); 0.017 µM in assay [4] (Human immunodeficiency virus 1, read-out: T332S/V362I/prR41G EC90).

Regarding `C=C(C)[C@@H]1CC[C@]2(NCCN3CCS(=O)(=O)CC3)CC[C@]3(C)[C@H](CC[C@@H]4[C@@]5(C)CC=C(C6=CCC(CCOc7cc(Br)ccn7)(C(=O)O)CC6)C(C)(C)[C@@H]5CC[C@]43C)[C@@H]12` (stereo partly drawn) [Example A33, 1-(2-((4-bromopyridin-2-yl)oxy)ethyl)-4-((1R,3aS,5aR,5bR,7aR,11aS,11bR,13aR,13bR)-3a-((2-(1,1-dioxidothiomorpholino)ethyl)amino)-5a,5b,8,8,11a-pentamethyl-1-(prop-1-en-2-yl)-2,3,3a,4,5,5a,5b,6,7,7a,8,11,11a,11b,12,13,13a,13b-octadecahydro-1H-cyclopenta[a]chrysen-9-yl)cyclohex-3-ene-1-carboxylic acid], the EC50 is 0.006 µM in assay [1] (setting [5]), 1.79 µM in assay [2], > 0.05 µM in assay [3] and 0.419 µM in assay [4].

On to `C=C(C)[C@@H]1CC[C@]2(NCCN3CCS(=O)(=O)CC3)CC[C@]3(C)[C@H](CC[C@@H]4[C@@]5(C)CC=C(C6=CCC(CCOc7cc(C)sn7)(C(=O)O)CC6)C(C)(C)[C@@H]5CC[C@]43C)[C@@H]12` (stereo partly drawn) [Example A21, 4-((1R,3aS,5aR,5bR,7aR,11aS,11bR,13aR,13bR)-3a-((2-(1,1-dioxidothiomorpholino)ethyl)amino)-5a,5b,8,8,11a-pentamethyl-1-(prop-1-en-2-yl)-2,3,3a,4,5,5a,5b,6,7,7a,8,11,11a,11b,12,13,13a,13b-octadecahydro-1H-cyclopenta[a]chrysen-9-yl)-1-(2-((5-methylisothiazol-3-yl)oxy)ethyl)cyclohex-3-ene-1-carboxylic acid], for which the EC50 in assay [1] (setting [5]) is 0.003 µM; in assay [2] it was 0.017 µM; in assay [3], 0.018 µM; in assay [4], 0.018 µM.

Consider `C=C(C)c1cc(OCC2(C(=O)O)CC=C(C3=CC[C@]4(C)[C@H]5CC[C@@H]6[C@H]7[C@H](C(=C)C)CC[C@]7(NCCN7CCS(=O)(=O)CC7)CC[C@@]6(C)[C@]5(C)CC[C@H]4C3(C)C)CC2)ns1` (some centres unmarked) [Example 18], for which the EC50 is 0.002 µM in assay [1] (setting [5]), 0.011 µM in assay [2], < 0.05 µM in assay [3] and 0.014 µM in assay [4].

Take `C=C(C)[C@@H]1CC[C@]2(NCCN3CCS(=O)(=O)CC3)CC[C@]3(C)[C@H](CC[C@@H]4[C@@]5(C)CC=C(C6=CC[C@@](COc7cccc(OC)n7)(C(=O)O)CC6)C(C)(C)[C@@H]5CC[C@]43C)[C@@H]12` [Example 28, (S)-4-((1R,3aS,5aR,5bR,7aR,11aS,11bR,13aR,13bR)-3a-((2-(1,1-dioxidothiomorpholino)ethyl)amino)-5a,5b,8,8,11a-pentamethyl-1-(prop-1-en-2-yl)-2,3,3a,4,5,5a,5b,6,7,7a,8,11,11a,11 b,12,13,13a,13b-octadecahydro-1H-cyclopenta[a]chrysen-9-yl)-1-(((6-methoxypyridin-2-yl)oxy)methyl)cyclohex-3-ene-1-carboxylic acid]: the EC50 worked out at 0.003 µM in assay [1] (setting [5]), 0.021 µM in assay [2], 0.021 µM in assay [3] and 0.021 µM in assay [4].

Take `C=C(C)[C@@H]1CC[C@]2(NCC[C@]3(O)CC[C@@H](S(C)(=O)=O)CC3)CC[C@]3(C)[C@H](CC[C@@H]4[C@@]5(C)CC=C(C6=CCC(COc7ccccn7)(C(=O)O)CC6)C(C)(C)[C@@H]5CC[C@]43C)[C@@H]12` (stereo partly drawn) [Example A1, 4-((1R,3aS,5aR,5bR,7aR,11aS,11bR,13aR,13bR)-3a-((2-((1s,4R)-1-hydroxy-4-(methylsulfonyl)cyclohexyl)ethyl)amino)-5a,5b,8,8,11a-pentamethyl-1-(prop-1-en-2-yl)-2,3,3a,4,5,5a,5b,6,7,7a,8,11,11a,11 b,12,13,13a,13b-octadecahydro-1H-cyclopenta[a]chrysen-9-yl)-1-((pyridin-2-yloxy)methyl)cyclohex-3-enecarboxylic acid]: the EC50 turned out to be 0.005 µM in assay [1] (setting [5]), 0.009 µM in assay [2], 0.026 µM in assay [3] and 0.026 µM in assay [4].

For the molecule `C=C(C)[C@@H]1CC[C@]2(NCCN3CCS(=O)(=O)CC3)CC[C@]3(C)[C@H](CC[C@@H]4[C@@]5(C)CC=C(C6=CCC(CCOc7ncccc7C(F)(F)F)(C(=O)O)CC6)C(C)(C)[C@@H]5CC[C@]43C)[C@@H]12` (stereo partly drawn) [Example A30, 4-((1R,3aS,5aR,5bR,7aR,11aS,11bR,13aR,13bR)-3a-((2-(1,1-dioxidothiomorpholino)ethyl)amino)-5a,5b,8,8,11a-pentamethyl-1-(prop-1-en-2-yl)-2,3,3a,4,5,5a,5b,6,7,7a,8,11,11a,11b,12,13,13a,13b-octadecahydro-1H-cyclopenta[a]chrysen-9-yl)-1-(2-((3-(trifluoromethyl)pyridin-2-yl)oxy)ethyl)cyclohex-3-ene-1-carboxylic acid], the EC50 in assay [1] (setting [5]) is 0.013 µM; in assay [2], 3 µM; in assay [3] it was 0.223 µM; in assay [4], 0.223 µM.

For the molecule `C=C(C)[C@@H]1CC[C@]2(NCC[C@]3(O)CC[C@H](S(C)(=O)=O)CC3)CC[C@]3(C)[C@H](CC[C@@H]4[C@@]5(C)CC=C(C6=CCC(COc7ccccn7)(C(=O)O)CC6)C(C)(C)[C@@H]5CC[C@]43C)[C@@H]12` (stereo partly drawn) [Example A2, 4-((1R,3aS,5aR,5bR,7aR,11aS,11bR,13aR,13bR)-3a-((2-((1r,4S)-1-hydroxy-4-(methylsulfonyl)cyclohexyl)ethyl)amino)-5a,5b,8,8,11a-pentamethyl-1-(prop-1-en-2-yl)-2,3,3a,4,5,5a,5b,6,7,7a,8,11,11a,11 b,12,13,13a,13b-octadecahydro-1H-cyclopenta[a]chrysen-9-yl)-1-((pyridin-2-yloxy)methyl)cyclohex-3-enecarboxylic acid], the EC50 turned out to be 0.001 µM in assay [1] (setting [5]), 0.014 µM in assay [2], 0.008 µM in assay [3] and 0.008 µM in assay [4].
